# Biological target: ROR gamma ligand binding domain (Homo sapiens (Human), UniProt P51449)
# Experiment: ROR gamma luciferase reporter assay (GAL4-ROR gamma LBD, HEK293 cells)
# Type: cell-based
# Conditions: 48 hours treatment, read-out: RORγ luciferase Reporter assay: IC50 (nM) (in range)
# Procedure: The Ligand Binding Domain (LBD) of ROR gamma was cloned into pFN26A (BIND) hRluc-neo Flexi vector (Promega) which expresses a fusion protein comprised of a DNA binding domain of the yeast GAL4 gene, a linker segment and ROR gamma ligand binding domain. For the reporter assay 0.02×10^6 HEK293 cells were seeded per well in a 96 well plate in complete media and incubated overnight in an incubator with 5% CO2 at 37° C. before transfection. Cells were then co-transfected with pFN26A hRluc-neo Flexi vector containing the LBD of ROR gamma and pGL4.35 [luc2P/9XGAL4 UAS/Hygro] Vector (Promega) in low serum media. Post transfection and recovery, cells were treated with the test compounds for 48 hours. The assay was terminated using the Bright-Glo Luciferase assay system from Promega and the Luminescence was measured using a luminescence reader. The luminescence values were used to calculate the potency of the compounds.
# Sequence of ROR gamma ligand binding domain (P51449 269-508): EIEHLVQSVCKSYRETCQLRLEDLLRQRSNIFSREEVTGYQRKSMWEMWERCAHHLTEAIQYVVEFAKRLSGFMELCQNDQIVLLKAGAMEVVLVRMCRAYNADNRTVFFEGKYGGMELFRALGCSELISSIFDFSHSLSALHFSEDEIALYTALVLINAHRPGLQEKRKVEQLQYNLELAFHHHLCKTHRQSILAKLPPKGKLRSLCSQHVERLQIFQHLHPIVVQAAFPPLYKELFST
row,IC50,Structure (SMILES)
1,< 100 nM,"CCS(=O)(=O)c1ccc(CC(=O)Nc2ccc3c(n2)CCC(C)(c2cc(C)nc(OC)n2)C3=O)cc1 (stereo not drawn) [Compound 64, 2-(4-(ethylsulfonyl)phenyl)-N-(6-(2-methoxy-6-methylpyrimidin-4-yl)-6-methyl-5-oxo-5,6,7,8-tetrahydroquinolin-2-yl)acetamide]"
2,< 100 nM,"CCS(=O)(=O)c1ccc(CC(=O)Nc2ccc3c(n2)CCC(C)(c2cc(OC)nc(C)n2)C3=O)cc1 (single isomer, unassigned) [compound 115, 2-(4-(ethylsulfonyl)phenyl)-N-(6-(6-methoxy-2-methylpyrimidin-4-yl)-6-methyl-5-oxo-5,6,7,8-tetrahydroquinolin-2-yl)acetamide]"
3,100 to 500 nM,"CCS(=O)(=O)c1ccc(CC(=O)Nc2cc(C)c3c(n2)CCC(C)(c2ccc4nc(C)cn4n2)C3=O)cc1 (stereo not drawn) [Compound 75, N-(4,6-dimethyl-6-(2-methylimidazo[1,2-b]pyridazin-6-yl)-5-oxo-5,6,7,8-tetrahydroquinolin-2-yl)-2-(4-(ethylsulfonyl)phenyl)acetamide]"
4,< 100 nM,"CCS(=O)(=O)c1ccc(CC(=O)Nc2ccc3c(n2)CCC(C)(c2cc(OC)nc(C)n2)C3=O)cc1 (stereo not drawn) [Compound 65, 2-(4-(ethylsulfonyl)phenyl)-N-(6-(6-methoxy-2-methylpyrimidin-4-yl)-6-methyl-5-oxo-5,6,7,8-tetrahydroquinolin-2-yl)acetamide]"
5,> 500 nM,"CCS(=O)(=O)c1ccc(CC(=O)Nc2ccc3c(n2)CCC(C)(c2cc(OC)nc(C)n2)C3=O)cc1 (single isomer, unassigned) [compound 116, 2-(4-(ethylsulfonyl)phenyl)-N-(6-(6-methoxy-2-methylpyrimidin-4-yl)-6-methyl-5-oxo-5,6,7,8-tetrahydroquinolin-2-yl)acetamide]"
6,100 to 500 nM,"CCS(=O)(=O)c1ccc(CNC(=O)c2cc3c(cn2)C(=O)C(C)(c2cc(C)nc(C)n2)CC3)cc1 (stereo not drawn) [Compound-134, 7-(2,6-dimethylpyrimidin-4-yl)-N-(4-(ethylsulfonyl)benzyl)-7-methyl-8-oxo-5,6,7,8-tetrahydroisoquinoline-3-carboxamide]"
7,> 500 nM,"CCS(=O)(=O)c1ccc(CC(=O)Nc2ccc3c(n2)CCC(C)(c2cc(C)nc(C)n2)C3=O)nc1 (single isomer, unassigned) [compound 123, N-(6-(2,6-dimethylpyrimidin-4-yl)-6-methyl-5-oxo-5,6,7,8-tetrahydroquinolin-2-yl)-2-(5-(ethylsulfonyl)pyridin-2-yl)acetamide]"

# Second part, the compound before the results:
row,Structure (SMILES),IC50
1,"CCS(=O)(=O)c1ccc(CC(=O)Nc2ccc3c(n2)CCC(C)(c2nccn4c(F)cnc24)C3=O)cc1 (stereo not drawn) [Compound 97, 2-(4-(ethylsulfonyl)phenyl)-N-(6-(3-fluoroimidazo[1,2-a]pyrazin-8-yl)-6-methyl-5-oxo-5,6,7,8-tetrahydroquinolin-2-yl)acetamide]",> 500 nM
2,"CCS(=O)(=O)c1ccc(CC(=O)Nc2ccc3c(n2)CCC(C)(c2ccc(Cl)nn2)C3=O)cc1 (stereo not drawn) [Compound 93, N-(6-(6-chloropyridazin-3-yl)-6-methyl-5-oxo-5,6,7,8-tetrahydroquinolin-2-yl)-2-(4-(ethylsulfonyl)phenyl)acetamide]",> 500 nM
3,"CCS(=O)(=O)c1ccc(CC(=O)Nc2ccc3c(n2)CCC(C)(c2nccn4c(C(F)(F)F)cnc24)C3=O)cc1 (stereo not drawn) [Compound 74, 2-(4-(ethylsulfonyl)phenyl)-N-(6-methyl-5-oxo-6-(3-(trifluoromethyl)-imidazo[1,2-a]pyrazin-8-yl)-5,6,7,8-tetrahydroquinolin-2-yl)acetamide]",< 100 nM
4,"CCS(=O)(=O)c1ccc(CC(=O)Nc2ccc3c(n2)CC(C)C(c2cc(C)nc(C)n2)C3=O)cc1 (stereo not drawn) [Compound 82, N-(6-(2,6-dimethylpyrimidin-4-yl)-7-methyl-5-oxo-5,6,7,8-tetrahydroquinolin-2-yl)-2-(4-(ethylsulfonyl)phenyl)acetamide]",> 500 nM
5,"CCS(=O)(=O)c1ccc(CC(=O)Nc2ccc3c(n2)CCC(C)(c2ncc(C)n4ccnc24)C3=O)cc1 (stereo not drawn) [Compound 68, 2-(4-(ethylsulfonyl)phenyl)-N-(6-methyl-6-(5-methylimidazo[1,2-a]pyrazin-8-yl)-5-oxo-5,6,7,8-tetrahydroquinolin-2-yl)acetamide]",100 to 500 nM
6,"CCS(=O)(=O)c1ccc(CC(=O)Nc2cc(C)c3c(n2)CCC(C)(c2nccn4cc(C)nc24)C3=O)cc1 (stereo not drawn) [Compound 52, N-(4,6-dimethyl-6-(2-methylimidazo[1,2-a]pyrazin-8-yl)-5-oxo-5,6,7,8-tetrahydroquinolin-2-yl)-2-(4-(ethylsulfonyl)phenyl)acetamide]",< 100 nM
7,"CCS(=O)(=O)c1ccc(CC(=O)Nc2cc(C)c3c(n2)CCC(C)(c2cc(C)c(OC)nn2)C3=O)cc1 (stereo not drawn) [Compound 96, 2-(4-(ethylsulfonyl)phenyl)-N-(6-(6-methoxy-5-methylpyridazin-3-yl)-4,6-dimethyl-5-oxo-5,6,7,8-tetrahydroquinolin-2-yl)acetamide]",100 to 500 nM
8,"CCS(=O)(=O)c1ccc(CC(=O)Nc2cc(C)c3c(n2)CCC(C)(c2nnc(OC)cc2C)C3=O)cc1 (stereo not drawn) [Compound 95, 2-(4-(ethylsulfonyl)phenyl)-N-(6-(6-methoxy-4-methylpyridazin-3-yl)-4,6-dimethyl-5-oxo-5,6,7,8-tetrahydroquinolin-2-yl)acetamide]",> 500 nM
9,"CCS(=O)(=O)c1ccc(CC(=O)Nc2ccc3c(n2)CCC(C)(c2nc(C)cn4ccnc24)C3=O)cc1 (single isomer, unassigned) [compound 118, 2-(4-(ethylsulfonyl)phenyl)-N-(6-methyl-6-(6-methylimidazo[1,2-a]pyrazin-8-yl)-5-oxo-5,6,7,8-tetrahydroquinolin-2-yl)acetamide]",< 100 nM
10,"CCS(=O)(=O)c1ccc(CC(=O)Nc2ccc3c(n2)CCC(C)(c2ccc(OC(C)C)nn2)C3=O)cc1 (stereo not drawn) [Compound 57, 2-(4-(ethylsulfonyl)phenyl)-N-(6-(6-isopropoxypyridazin-3-yl)-6-methyl-5-oxo-5,6,7,8-tetrahydroquinolin-2-yl)acetamide]",> 500 nM
11,"CCS(=O)(=O)c1ccc(CC(=O)Nc2ccc3c(n2)CCC(C)(c2nccn4c(F)c(C)nc24)C3=O)cc1 (stereo not drawn) [Compound 66, 2-(4-(ethylsulfonyl)phenyl)-N-(6-(3-fluoro-2-methylimidazo[1,2-a]pyrazin-8-yl)-6-methyl-5-oxo-5,6,7,8-tetrahydroquinolin-2-yl)acetamide]",< 100 nM
12,"CCS(=O)(=O)c1ccc(CC(=O)Nc2ccc3c(n2)C(C)CC(C)(c2nccn4ccnc24)C3=O)cc1 (stereo not drawn) [Compound 48, 2-(4-(ethylsulfonyl)phenyl)-N-(6-(imidazo[1,2-a]pyrazin-8-yl)-6,8-dimethyl-5-oxo-5,6,7,8-tetrahydroquinolin-2-yl)acetamide]",> 500 nM
13,"CCS(=O)(=O)c1ccc(CC(=O)Nc2cc(C)c3c(n2)CCC(C)(c2cc(C4CC4)c(OC)nn2)C3=O)cc1 (stereo not drawn) [Compound 76, N-(6-(5-cyclopropyl-6-methoxypyridazin-3-yl)-4,6-dimethyl-5-oxo-5,6,7,8-tetrahydroquinolin-2-yl)-2-(4-(ethylsulfonyl)phenyl)acetamide]",100 to 500 nM
14,"CCS(=O)(=O)c1ccc(CC(=O)Nc2ccc3c(n2)CCC(C)(c2nccn4cc(C)nc24)C3=O)c(F)c1 (stereo not drawn) [Compound 58, 2-(4-(ethylsulfonyl)-2-fluorophenyl)-N-(6-methyl-6-(2-methylimidazo[1,2-a]pyrazin-8-yl)-5-oxo-5,6,7,8-tetrahydroquinolin-2-yl)acetamide]",100 to 500 nM

# From patent US11229636B2, “Substituted tetrahydroquinolinone compounds as ROR gamma modulators” (Aurigene Discovery Technologies Limited, priority 2015, dated 2022)
